How the values were obtained:
[1] = biological target: T1, human sphingosine-1-phosphate receptor 1 (S1P1) (Homo sapiens (Human), UniProt P21453); assay: Inhibition of cAMP production (HTRF cAMP HiRange), S1P1 CHO-K1 cells; format: cell-based; conditions: for hS1P1 cAMP pEC50: inhibition of cAMP production, S1P1 CHO-K1 cells; for Emax: CHO-K1, efficacy (SPAN) normalized to fingolimod, read-out: hS1P1 cAMP SPAN
Experimental: (§1) Stable clonal Chinese hamster ovary K1 (CHO-K1) cells co-expressing EA-β-arrestin2 and the human sphingosine-1-phosphate receptor 1 (NM_001400, S1P1) with a C-terminal Prolink™ tag were purchased from DiscoverX corporation (Cat #: 93-0207C2).
(§2) Cell lines were cultured in AssayComplete™ Media 6 (DiscoverX Corporation, Cat #: 920018GF2) at 37° C. and 5% CO2 in a humidified CO2 and temperature-controlled incubator. To begin assay plating, cells were washed with dulbecco's phosphate buffered saline (CellGro, Cat #: 21-031-CV) and lifted from the culturing flask by incubation (37° C., 5 min) with CellStripper (Cellgro, Cat #: 25-056-CI). […] Plated cells were incubated overnight at 37° C. and 5% CO2 in a humidified CO2 and temperature-controlled incubator. Detecting Inhibition of cAMP Production
Agonist-promoted G-protein responses were determined by measuring changes in intracellular cAMP using the HTRF® cAMP HiRange kit (CisBio, Cat #: 62AM6PEJ) based on time-resolved fluorescence resonance energy transfer (TR-FRET) technology. […] Following a 30-minute incubation at 37° C. and 5% CO2 in a humidified CO2 and temperature-controlled incubator, the components of the cAMP HiRange kit were added as per the manufacturer's instructions. After an hour incubation at room temperature, plates were analyzed by a BMG PheraStar microplate reader.
(§3) The tables below include the efficacy of the compound as compared to a positive control, referred to as “SPAN”. These values are normalized to fingolimod, a known agonist of the sphingosine-1-phosphate 1 receptor. The tables also include potency values (pEC50) for modulating discrete receptor-mediated activities (inhibition of cAMP production and […] recruitment).
Target sequence in this assay (P21453 whole entry, looked up): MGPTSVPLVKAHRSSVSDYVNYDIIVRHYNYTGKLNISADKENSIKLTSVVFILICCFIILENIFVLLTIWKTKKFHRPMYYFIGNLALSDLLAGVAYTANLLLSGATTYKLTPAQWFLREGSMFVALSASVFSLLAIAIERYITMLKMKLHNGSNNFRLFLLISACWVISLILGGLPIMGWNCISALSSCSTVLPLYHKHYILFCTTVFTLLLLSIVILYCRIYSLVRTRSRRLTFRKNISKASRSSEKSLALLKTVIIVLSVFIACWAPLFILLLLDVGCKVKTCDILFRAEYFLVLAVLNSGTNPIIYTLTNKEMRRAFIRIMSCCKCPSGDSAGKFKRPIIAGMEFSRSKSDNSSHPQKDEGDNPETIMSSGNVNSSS

[2] = biological target: T1, human sphingosine-1-phosphate receptor 1 (S1P1); assay: β-Arrestin2 recruitment assay (PathHunter), S1P1 CHO-K1 cells; format: cell-based; conditions: for hS1P1 B-arrestin2 pEC50: β-arrestin2 recruitment, S1P1 CHO-K1 cells; for Emax: CHO-K1, efficacy (SPAN) normalized to fingolimod, read-out: hS1P1 B-arrestin2 SPAN
Experimental: as §1, §2
Target sequence in this assay (P21453 whole entry, looked up): as above
Target sequence in this assay (P32121 whole entry partner, looked up): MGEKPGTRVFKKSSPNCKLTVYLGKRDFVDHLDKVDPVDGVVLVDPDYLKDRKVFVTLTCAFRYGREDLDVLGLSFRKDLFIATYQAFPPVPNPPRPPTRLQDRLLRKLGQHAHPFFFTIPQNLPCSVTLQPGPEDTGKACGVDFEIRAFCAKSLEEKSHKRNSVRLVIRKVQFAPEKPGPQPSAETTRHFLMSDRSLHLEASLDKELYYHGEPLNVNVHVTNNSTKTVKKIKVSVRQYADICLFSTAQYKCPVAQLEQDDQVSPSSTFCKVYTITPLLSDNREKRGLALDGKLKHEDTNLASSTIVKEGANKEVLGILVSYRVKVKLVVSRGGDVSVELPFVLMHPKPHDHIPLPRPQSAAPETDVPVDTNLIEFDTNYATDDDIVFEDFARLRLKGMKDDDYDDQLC
Agonist-promoted β-arrestin2 recruitment to the sphingosine-1-phosphate 1 receptor was determined using the β-arrestin PathHunter®) Detection kit (DiscoverX Corporation, Cat #: 93-0001). […] In cells that stably express these fusion proteins, stimulation with a cognate agonist results in the interaction of […] and the Prolink™-tagged GPCR. This allows the complementation of the two β-galactosidase fragments and results in the formation of a functional enzyme with β-galactosidase activity. […] Following a 60 minute incubation at 37° C. and 5% CO2 in a humidified CO2 and temperature-controlled incubator, the components of the β-arrestin PathHunter® Detection kit were added as per the manufacturer's instructions. After an hour incubation at room temperature, plates were analyzed by a BMG PheraStar microplate reader.
as §3

SMILES | hS1P1 cAMP pEC50 [1] | hS1P1 B-arrestin2 pEC50 [2] | Emax [1] [%] | Emax [2] [%]
Brc1ccccc1-c1nc(-c2ccc3c(c2)nnn3Cc2ccccn2)no1 [Compound 45, 5-(2-bromophenyl)-3-(1-(pyridin-2-ylmethyl)-1H-benzo[d][1,2,3]triazol-5-yl)-1,2,4-oxadiazole] | <6.5 | <5 | – | –
Cc1ccsc1-c1noc(-c2ccc3c(c2)nnn3C2CCCC2)n1 [Compound 46, 1-cyclopentyl-5-[3-(3-methylthiophen-2-yl)-1,2,4-oxadiazol-5-yl]-1H-1,2,3-benzotriazole] | >6.5 | >5 | – | –
CSc1cccc(-c2nc(-c3ccc4c(c3)nnn4C3CCCC3)no2)c1 [Compound 47, 3-(1-cyclopentyl-1H-benzo[d][1,2,3]triazol-5-yl)-5-(3-(methylthio)phenyl)-1,2,4-oxadiazole] | <6.5 | <5 | – | –
Brc1ccccc1-c1nc(-c2ccc3c(c2)nnn3Cc2ccncc2)no1 [Compound 48, 5-(2-bromophenyl)-3-(1-(pyridin-4-ylmethyl)-1H-benzo[d][1,2,3]triazol-5-yl)-1,2,4-oxadiazole] | <6.5 | <5 | – | –
CC(C)n1nnc2cc(-c3nc(-c4ccc(COc5ccccc5)cc4)no3)ccc21 [Compound 49, 5-{3-[4-(phenoxymethyl)phenyl]-1,2,4-oxadiazol-5-yl}-1-(propan-2-yl)-1H-1,2,3-benzotriazole] | <6.5 | <5 | – | –
Cc1oc(-c2ccc3c(c2)nnn3C(C)C)nc1-c1ccc(Cl)cc1 [Compound 50, 5-[4-(4-chlorophenyl)-5-methyl-1,3-oxazol-2-yl]-1-(propan-2-yl)-1H-1,2,3-benzotriazole] | <6.5 | <5 | < 75 | < 75
COc1cnc(-c2nc(-c3ccc4c(c3)nnn4C(C)C)no2)cn1 [Compound 51, 3-(1-isopropyl-1H-benzo[d][1,2,3]triazol-5-yl)-5-(5-methoxypyrazin-2-yl)-1,2,4-oxadiazole] | <6.5 | <5 | – | –
Brc1ccccc1-c1nc(-c2ccc3c(c2)nnn3Cc2ccccc2)no1 [Compound 52, 3-(1-benzyl-1H-benzo[d][1,2,3]triazol-5-yl)-5-(2-bromophenyl)-1,2,4-oxadiazole] | <6.5 | <5 | – | –
CC(C)n1nnc2cc(-c3nc(-c4ccc(OCc5ccccc5)cc4)no3)ccc21 [Compound 53, 5-{3-[4-(benzyloxy)phenyl]-1,2,4-oxadiazol-5-yl}-1-(propan-2-yl)-1H-1,2,3-benzotriazole] | <6.5 | <5 | < 75 | < 75
CCCn1nnc2cc(-c3nc(-c4cccc(C)c4)no3)ccc21 [Compound 54, 5-[3-(3-methylphenyl)-1,2,4-oxadiazol-5-yl]-1-propyl-1H-1,2,3-benzotriazole] | <6.5 | <5 | – | –
CC(C)C(c1ccccc1)c1noc(-c2ccc3c(c2)nnn3C(C)C)n1 (stereo not shown) [Compound 56, 5-[3-(2-methyl-1-phenylpropyl)-1,2,4-oxadiazol-5-yl]-1-(propan-2-yl)-1H-1,2,3-benzotriazole] | <6.5 | <5 | – | –
O=C1CCOc2ccc(-c3nc(-c4ccncc4)no3)cc21 [Compound 57, 6-[3-(pyridin-4-yl)-1,2,4-oxadiazol-5-yl]-3,4-dihydro-2H-1-benzopyran-4-one] | <6.5 | <5 | – | –
CC1(C)CCC2(CC1)CC(=O)c1cc(-c3nc(-c4cccnc4)no3)ccc1O2 [Compound 58, 4′,4′-dimethyl-6-[3-(pyridin-3-yl)-1,2,4-oxadiazol-5-yl]-3,4-dihydrospiro[1-benzopyran-2,1′-cyclohexane]-4-one] | <6.5 | <5 | < 75 | < 75
C=CCNc1ccc(-c2nc(-c3ccc4c(c3)CCC(=O)N4)no2)cc1C#N [Compound 61, 2-(allylamino)-5-(3-(2-oxo-1,2,3,4-tetrahydroquinolin-6-yl)-1,2,4-oxadiazol-5-yl)benzonitrile] | >6.5 | >5 | > 75 | > 75
CC(C)Oc1ccccc1-c1noc(-c2ccc3c(c2)nnn3C(C)C)n1 [Compound 62, 3-(2-isopropoxyphenyl)-5-(1-isopropyl-1H-benzo[d][1,2,3]triazol-5-yl)-1,2,4-oxadiazole] | <6.5 | <5 | – | –
CC(C)n1nnc2cc(-c3ncc(-c4ccccc4F)s3)ccc21 [Compound 63, 5-(2-fluorophenyl)-2-(1-isopropyl-1H-benzo[d][1,2,3]triazol-5-yl)thiazole] | >6.5 | <5 | – | –
CC(C)n1nnc2cc(-c3noc(-c4cccc(F)c4)n3)ccc21 [Compound 64, 5-(3-fluorophenyl)-3-(1-isopropylbenzotriazol-5-yl)-1,2,4-oxadiazole] | >6.5 | <5 | – | –
CCC1(CC)CC(=O)c2cc(-c3nc(-c4ccc(OC)cc4)no3)ccc2O1 [Compound 65, 2,2-diethyl-6-(3-(4-methoxyphenyl)-1,2,4-oxadiazol-5-yl)chroman-4-one] | <6.5 | <5 | < 75 | < 75
CCC1(CC)CC(=O)c2cc(-c3nc(-c4ccccc4C)no3)ccc2O1 [Compound 66, 2,2-diethyl-6-(3-(o-tolyl)-1,2,4-oxadiazol-5-yl)chroman-4-one] | >6.5 | >5 | > 75 | > 75
CCC1(CC)CC(=O)c2cc(-c3nnc(-c4ccc5c(c4)nnn5C(C)C)s3)ccc2O1 [Compound 67, 2,2-diethyl-6-(5-(1-isopropyl-1H-benzo[d][1,2,3]triazol-5-yl)-1,3,4-thiadiazol-2-yl)chroman-4-one] | <6.5 | >5 | > 75 | < 75
CCC1(CC)CC(=O)c2cc(-c3nc(-c4ccc(Cl)cc4)no3)ccc2O1 [Compound 68, 6-[3-(4-chlorophenyl)-1,2,4-oxadiazol-5-yl]-2,2-diethyl-chroman-4-one] | <6.5 | <5 | < 75 | < 75
COc1ccc(-c2nc(-c3ccc4c(c3)nnn4C(C)C)no2)cc1 [Compound 69, 3-(1-isopropylbenzotriazol-5-yl)-5-(4-methoxyphenyl)-1,2,4-oxadiazole] | <6.5 | >5 | < 75 | < 75
CC(C)n1nnc2cc(-c3nnc(-c4ccccc4O)s3)ccc21 [Compound 70, 2-{5-[1-(propan-2-yl)-1H-1,2,3-benzotriazol-5-yl]-1,3,4-thiadiazol-2-yl}phenol] | >6.5 | >5 | < 75 | < 75
CCC1(CC)CC(=O)c2cc(-c3nc(-c4cccc(OC)c4)no3)ccc2O1 [Compound 71, 2,2-diethyl-6-(3-(3-methoxyphenyl)-1,2,4-oxadiazol-5-yl)chroman-4-one] | <6.5 | <5 | > 75 | < 75

Source: US11912693B2, “Compounds for modulating S1P1 activity and methods of using the same” (TREVENA, INC., priority 2017, dated 2024)
